{"source": "patent US10010581B2", "about": "“Syndecan peptides and polypeptides and uses thereof” (Wisconsin Alumni Research Foundation, priority 2012, dated 2018)", "format_in_all_cases": "cell-based, human", "key": {"MDA-MB-468 cells": {"system": "MDA-MB-468 cells", "assay": "total cell number, CellTiterGLO assay", "conditions": "4 or 7 days", "experimental": "FIGS. 11A-F. SSTN treatment of normal (nontransformed) epithelial cells versus carcinoma (transformed) cells. Cells are plated for one day, then treated with either 3-30 μM […] (SSTN-I), 3-30 μM […] (SSTN-E), 3-30 μM SSTNHER2 (SSTN-H) or combinations of the three peptides, each at 10 μM to test their additive effect. […] The treatment times are chosen to reflect only modest effects of the peptides used singly, so that the more pronounced effect of peptides used in combination can still be observed. Treatment for longer times leads to significant cell death observed even with single peptides alone. (FIG. 11A) HaCat human keratinocytes, an example of a normal stratified epithelium, (FIG. 11B) UM-SCC47 cells, a squamous cell carcinoma derived from the tongue of a patient (a stratrified epithelium), (FIG. 11C) SCC25 cells, another squamous cell carcinoma from the tongue of a patient (FIG. 11D) MCF10A cells, a normal human breast epithelium, (FIG. 11E) MDA-MB-468 cells, a triple-negative (TN) breast carcinoma, and (FIG. 11F) SKBr3 cells, a HER2+ human breast carcinoma. Note that the “triple-negative” designation of the MDA-MB-468 carcinoma means the cells are negative for progesterone receptor, estrogen receptor and the HER2 kinase. Thus, they would not be expected to rely on HER2. Indeed, these cells are not affected by SSTNHER2, either alone or when combined with the other peptides. […] Nonetheless, the other three carcinomas are inhibited by SSTNHER2, and this is enhanced when SSTNHER2 is combined with the other SSTN peptides, leading to obvious cell death (e.g., the number of cells at the end of the experiment are less than at the beginning).\nCells (5×10^4/well in a 24-well plate) were treated with activated TAT-peptide ([…]; (SEQ ID NO:18)), inactivated TAT-peptide ([…]; (SEQ ID NO:19)) or GST fusion protein (GST, GST-S1ED or GST-S4ED). Cells death was observed by trypan blue staining or Cell Tilter-GLO Cell Viability Assay (Promega)."}, "[1]": {"system": "MCF10A mammary epithelial cells", "assay": "scratch wound haptotaxis induced by clustering the α6β4 integrin", "conditions": "α6β4 integrin clustered", "experimental": "FIG. 9. Sdc1 ectodomain fragments and β4 dominant-negative mutant specific for Sdc1/α6β4/HER2 block MCF10A mammary epithelial cell migration. Haptotaxis of MCF10A human mammary epithelial cells induced by clustering the α6β4 integrin in a scratch wound assay is used to test the efficacy of inhibitors that target the Sdc1 mechanism. Cells are incubated either with entire recombinant syndecan ectodomains (Sdc1 ectodomain (S1ED) or Sdc4 ectodomain (S4ED) as a control), or an active fragment of mouse S1ED (S1ED^200-252) containing the inhibitory site.\nHaCat or MCF10A cells were grown to confluence on 48 well-plates were starved for 6 hr by serum deprivation followed by introduction of a scratch wound in the monolayer using 200 μl pipette tip. Cells were cultured an additional 18 hr in DMEM containing mAb 3E1 (10 μg/ml) and goat anti-mouse IgG (50 μg/ml), EGF (10 ng/ml) or HGF (20 ng/ml) to cause cell migration in the presence or absence of inhibitors. Images were acquired using a PlanApo 20 (0.75 numerical aperture) objective and a Photometrics CoolSnap ES camera on a Nikon Eclipse TE2000U microscopy system and wound closure quantified.\nThe inventor used this assay to further truncate the S1ED recombinant proteins in order to find the smallest peptide that retains full inhibitory activity (e.g., SSTNHER2). The inventor tested mouse and human S1ED and find that they compete equally. […]"}, "HaCat keratinocytes": {"system": "HaCat keratinocytes", "assay": "scratch wound haptotaxis induced by LPA and clustering of α6β4 integrin", "conditions": "LPA + α6β4 clustered with mAb 3E1 and secondary antibody, AG825 10 μM, Iressa 1 μM", "from_the_text": "FIG. 6A-D. Sdc1 is required for HER2/α6β4-dependent HaCat keratinocyte migration. (FIG. 6A) HaCat keratinocytes deposit laminin 332 (LN332) and migrate upon this using α3β1 and α6β4 integrins to close a scratch wound in the monolayer when stimulated to undergo chemotaxis in response to EGF. Alternatively, migration is induced by clustering the integrin (using mAb 3E1 against the integrin+a secondary antibody to cluster the first antibody and thus the entire complex) in the presence of LPA. This mimics the clustering that occurs when the cells engage LN332 and is referred to as haptotaxis. […] (FIG. 6B) Haptotaxis, stimulated by LPA and clustering of α6β4 integrin as described in FIG. 6A, is blocked by antibody directed against the α3β1 integrin or by BM165 which targets the binding site for α3β1 in LN332. […] (FIG. 6C) The potential roles of Sdc1 or Sdc4 in haptotaxis is tested by silencing their expression, together with attempting to rescue with either wild-type mouse Sdc1 or Sdc4, or mouse mutants unable to engage the β4 cytoplasmic domain (mSdc1ΔC2 or mSdc4ΔC2). Haptotaxis is blocked by silencing endogenous Sdc1, and this cannot be rescued by Sdc1ΔC2 that fails to engage the α6β4 integrin. Silencing Sdc4 also disrupts migration, but this traces to its role in activity of the α3β1 integrin and not a role in engaging the α6β4 integrin, as it can be rescued by mSdc4ΔC2 that fails to associate with the α6β4 integrin. (FIG. 6D) Immunoprecipitation of either native mSdc4 or mSdc4[…]C2 confirms that the mSdc4ΔC2 mutant no longer associates with the α6β4 integrin, but does with the α3β1 integrin. […]\nHaCat or MCF10A cells were grown to confluence on 48 well-plates were starved for 6 hr by serum deprivation followed by introduction of a scratch wound in the monolayer using 200 μl pipette tip. […] Images were acquired using a PlanApo 20 (0.75 numerical aperture) objective and a Photometrics CoolSnap ES camera on a Nikon Eclipse TE2000U microscopy system and wound closure quantified. […]"}}}
{"substance": "SSTNHER2: synthetic peptide of human Sdc1 ectodomain amino acids 210-240 (SEQ ID NO:3), inhibits Sdc1 coupling of HER2 to α6β4 integrin (DFTFETSGENTAVVAVEPDRRNQSPVDQGAT; listed as Homo sapiens)", "values": [{"measurement": "proliferation and survival", "setting": "MDA-MB-468 cells; MDA-MB-468 (triple-negative), single peptide 3-30 μM", "value": "no effect"}, {"measurement": "total cell number, combination with the other SSTN peptides", "setting": "MDA-MB-468 cells; MDA-MB-468, each peptide at 10 μM", "value": "not affected"}, {"measurement": "haptotaxis (migration to close a scratch wound)", "setting": "[1]", "value": "blocks haptotaxis"}, {"measurement": "haptotaxis (migration to close a scratch wound)", "setting": "HaCat keratinocytes", "value": "blocks haptotaxis"}]}
